Data from US20250213475A1, “LIPOSOMAL COMPOSITIONS” (R.G.C.C. Holdings AG, priority 2022, published 2025).

Key:
[1] = Encapsulation efficacy, indirect from free drug in supernatant by UV/VIS; type: physicochemical; settings: analogue 1 mg/mL
Description: At the end of the above encapsulation process, the solution was centrifuged at 15.000 rpm for 20 minutes and the supernatant was kept for indirect encapsulation determination. The precipitate was lyophilized and kept for further analysis and characterization.
The supernatants after each centrifugation were kept and used to evaluate the amount of the free drug. Subtracting the amount of the free drug at the supernatant from the total added drug, the rest is considered as encapsulated. Briefly, from each solution samples were collected in order to prepare solutions, which were then evaluated with UV/VIS spectrometry. Based on standard curves, in which the different nucleosides were measured in solution on a UV-VIS spectrometer, different the remaining quantity was calculated. The encapsulation efficacy was measured then based on the following equation:
[formula] Quantity of the Nucleoside Analogue in the liposome=(Quantity of the Nucleoside Analogue initially added−Quantity of the Nucleoside Analogue in the supernatant).
For example, for {[2-(6-amino-9H-purin-9-yl)quinazolin-4-yl]oxy}phosphonic acid system code 1, after the centrifugation, we keep the supernatant from which, a fraction is collected to prepare a solution with targeted concertation of 10 ppm. Based on the Dilution Equation, C1V1=C2V2, C1=1000, because we consider, at the initial solution that the concentration is 1000 ppm (based on the fact that all of the added nucleoside analogue would be in the supernatant) • C2: is the targeted concentration, here 10 ppm • V2: volume of the final solution, here 10 mL
Thus, we take 100 uL from the supernatant and we dilute it to 10 mL final volume. The sample is quantified by UV/VIS spectrometry and we calculate the actual concentration of the sample. The concentration is converted to mass and we can estimate the final mass of the nucleoside analogue in the supernatant and in the liposome.

[2] = tested on: human lung cancer COLO699N cell line; experiment: AlamarBlue cytotoxicity assay, COLO699N; type: cell-based; settings: 0.01 μM to 10 μM, 24 h, 48 h and 72 h
Description: (§1) All cell lines were maintained at 37° C. in a humidified 5% CO2 atmosphere. AlamarBlue assay was performed to assess cell viability. The viable cells were seeded at a density of 2×10^4 (200 μl/well) in 96-well plate and incubated at 37° C. and 5% CO2 for 24 h to form a cell monolayer. After 24 h of incubation, supernatant on the monolayer was aspirated and 200 μl of medium and varying concentrations of the substances were added and incubated for 24 h, 48 h and 72 h time points. […] Fluorescence was measured at 560 nm excitation and 590 nm emission wavelength. The experiment was performed in triplicates. The average fluorescence was calculated for each triplicate. One sample t-test was used to determine differences in the mean by comparing the treated samples with the untreated controls. P values <0.05 were considered to indicate a statistically significant difference.

[3] = tested on: human breast adenocarcinoma (triple negative) MDA-MB-231 cell line; experiment: AlamarBlue cytotoxicity assay, MDA-MB-231; type: cell-based; settings: MDA-MB-231, 0.01 μM to 10 μM, 24 h, 48 h and 72 h
Description: The human breast adenocarcinoma (luminal type) MCF7 cell line (ECACC 86012803), human breast adenocarcinoma (triple negative) MDA-MB-231 cell line (ECACC 92020424), human colorectal carcinoma HCT116 cell line (ECACC 91091005) and human lung cancer COLO699N cell line (ECACC 93052608) were culture in RPMI 1640 medium Catalog #R0883 (Sigma-Aldrich, Darmstadt, Germany) supplemented with 10% fetal bovine serum Catalog #FB-1001/500 (BioSera, Nuaille, France) and 1% L-glutamine Catalog #G7513-100ML (Sigma-Aldrich, Darmstadt, Germany). All cell lines were maintained at 37° C. in a humidified 5% CO2 atmosphere. AlamarBlue assay was performed to assess cell viability. The viable cells were seeded at a density of 2×10^4 (200 μl/well) in 96-well plate and incubated at 37° C. and 5% CO2 for 24 h to form a cell monolayer. After 24 h of incubation, supernatant on the monolayer was aspirated and 200 μl of medium and varying concentrations of the substances were added and incubated for 24 h, 48 h and 72 h time points. […] Fluorescence was measured at 560 nm excitation and 590 nm emission wavelength. […] The average fluorescence was calculated for each triplicate. […] Results were calculated using the Microsoft Excel 2016. […]

[4] = tested on: human colorectal carcinoma HCT116 cell line; experiment: AlamarBlue cytotoxicity assay, HCT116; type: cell-based; settings: HCT116, 0.01 μM to 10 μM, 24 h, 48 h and 72 h
Description: as §1

[5] = tested on: human breast adenocarcinoma (luminal type) MCF7 cell line; experiment: AlamarBlue cytotoxicity assay, MCF7; type: cell-based; settings: MCF7, 0.01 μM to 10 μM, 24 h, 48 h and 72 h
Description: as §1

[6] = liposomal system code 2, DSPE-PEG:CHOL
[7] = liposomal system code 3, DSPE-PEG:PC:CHOL
[8] = liposomal system code 1, DSPE-PEG:CHOL:OA
[9] = liposomal system code 4, DSPE-PEG:CHOL:OA:PC
[10] = liposomal system code 5, DSPE-PEG:OA

## CC(=O)Nc1ccn(-c2nc(O)c3ccccc3n2)c(=O)n1 [N-[1-(4-hydroxyquinazolin-2-yl)-2-oxo-1,2-dihydropyrimidin-4-yl]acetamide]
[1]; [6]
  Encapsulation Efficacy (EE %): 58.1%
[1]; [7]
  Encapsulation Efficacy (EE %): 89.9%

## Nc1ncnc2c1ncn2-c1nc(OP(=O)(O)O)c2ccccc2n1 [{[2-(6-amino-9H-purin-9-yl)quinazolin-4-yl]oxy}phosphonic acid]
[1]; [8]
  Encapsulation Efficacy (EE %): 60.8%
[1]; [6]
  Encapsulation Efficacy (EE %): 76.8%
[1]; [7]
  Encapsulation Efficacy (EE %): 50.0%
[1]; [9]
  Encapsulation Efficacy (EE %): 60.8%
[1]; [10]
  Encapsulation Efficacy (EE %): 70.4%

## Nc1ccn(-c2nc(O)c3ccccc3n2)c(=O)n1 [4-amino-1-(4-hydroxyquinazolin-2-yl)-1,2-dihydropyrimidin-2-one]
[1]; [6]
  Encapsulation Efficacy (EE %): 73.6%
[1]; [7]
  Encapsulation Efficacy (EE %): 76.2%

## Nc1ncnc2c1ncn2-c1nc(O)c2ccccc2n1 [2-(6-Amino-9H-purin-9-yl)quinazolin-4-ol, 2-(6-amino-9H-purin-9-yl)quinazolin-4-ol]
[2]
  cytotoxic effect (in words): no statistically significant cytotoxic effect
[3]
  cytotoxic effect (in words): no statistically significant cytotoxic effect
[4]
  cytotoxic effect (in words): no statistically significant cytotoxic effect
[1]; [8]
  Encapsulation Efficacy (EE %): 55.2%
[1]; [6]
  Encapsulation Efficacy (EE %): 55.2%
[1]; [7]
  Encapsulation Efficacy (EE %): 65.1%
[1]; [9]
  Encapsulation Efficacy (EE %): 54.4%
[1]; [10]
  Encapsulation Efficacy (EE %): 65.6%
[5]
  cytotoxic effect (in words): no statistically significant cytotoxic effect
